Laboratory results taken from PubChem BioAssay (NCI).
Several values for one entry are separate records, joined by “and”; a condition that tells them apart may be missing. Equal entries are not always repeated.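 Compound exposure: 48 hours, 5 concentrations, 96-well plates. GI50 marks 50% less growth. TGI marks complete inhibition of growth.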

Legend:
Test in all cases: NCI anticancer screen, dose series, 48 h
[1] = system: A498 renal
[2] = system: CCRF-CEM leukemia
[3] = system: DU-145 prostate
[4] = system: HCT-116 colon
[5] = system: HL-60(TB) leukemia
[6] = system: MALME-3M melanoma
[7] = system: SK-MEL-2 melanoma
[8] = system: SNB-19 CNS
[9] = system: SR leukemia
[10] = system: U251 CNS

Compound	GI50 [1] [nM]	TGI [1]	GI50 [2]	TGI [2]	GI50 [3] [nM]	TGI [3]	GI50 [4]	TGI [4]	GI50 [5] [nM]	TGI [5]	GI50 [6] [nM]	TGI [6]	GI50 [7] [nM]	TGI [7]	GI50 [8] [µM]	TGI [8]	GI50 [9] [nM]	TGI [9]	GI50 [10] [nM]	TGI [10]
COc1cc(C2CC(c3ccc(C)cc3)=NN2C=O)ccc1Oc1ccnc2cc(Cl)ccc12 (stereo not drawn)	5730	23.1 µM	> 50000 nM	> 50 µM	> 50000	> 50 µM	2500 nM	> 50 µM	> 50000	> 50 µM	> 50000	> 50 µM	7390	18.3 µM	9.53	> 50 µM	> 50000	> 50 µM	6500	21.4 µM
O=C(CCCCCCSc1nc(-c2ccccc2)cc(-c2ccc(Cl)cc2)n1)NO	1400	4.09 µM	629 nM	6.49 µM	2250	10.6 µM	1140 nM	12.4 µM	2160	4.84 µM	1250	9.05 µM	3650	16.2 µM	2.63	11.2 µM	416	4.67 µM	1590	4.08 µM
Cc1ccc(CNc2c3ccccc3nc3ccccc23)cc1	1210	2.92 µM	2480 nM	12.6 µM	3020	11.4 µM	880 nM	6.6 µM	2200	5.07 µM	1660	3.18 µM	2060	4.47 µM	3.33	14.2 µM	1560	6.22 µM	2650	10.4 µM
COc1cc([C@H]2c3cc4c(cc3O[C@@]3(O)COC(=O)[C@@H]23)OCO4)cc(OC)c1OC		> 100 µM		> 100 µM		> 100 µM		> 100 µM		> 100 µM		> 100 µM		> 100 µM		> 100 µM		> 100 µM		> 100 µM
O=[N+]([O-])c1ccc(C(c2c[nH]c3ccccc23)c2c[nH]c3ccccc23)cc1		30.1 µM		1.17 µM		20.6 µM				49 µM		37.6 µM		20.1 µM		35.8 µM		22.5 µM		45.3 µM
N#Cc1c(-c2nc3ccccc3s2)c(=O)oc2cc(O)ccc12		> 100 µM		> 100 µM		> 100 µM		> 100 µM		66.5 µM		95.9 µM		> 100 µM		> 100 µM		> 100 µM		> 100 µM
COc1ccc(C(=O)/C(Br)=C/C(=O)O)cc1	58300	192 µM and 77.3 µM	3220 nM and 9430 nM	61 µM and 81.7 µM	65300	128 µM and 202 µM	25900 nM and 25400 nM	81.3 µM and 65.8 µM	19100	95.7 µM and 128 µM	18800	47.3 µM and 45.2 µM		29.3 µM and 32 µM	56.3	188 µM and 375 µM	19100	> 86 µM and 321 µM		46.5 µM and 52.1 µM
CS(=O)(=O)CCNCc1nc(-c2ccc3ncnc(Nc4ccc(F)c(Cl)c4)c3c2)cs1	3320	20.5 µM	15400 nM	> 25 µM	5490	> 25 µM	> 23900 nM	> 25 µM	> 12300	> 17.8 µM	> 23600	> 25 µM	> 17600	> 25 µM	> 25	> 25 µM	> 14000	> 22.2 µM	> 25000	> 25 µM
Cc1c2c(nn1-c1ccc(S(=O)(=O)NC(=S)Nc3ccccc3)cc1)-c1ccccc1CC2					> 50000	> 50 µM	18200 nM	> 50 µM	> 50000	> 50 µM	1150	> 50 µM	> 50000	> 50 µM	> 50	> 50 µM	> 50000	> 50 µM	39600	> 50 µM
Cc1ccc(-[n+]2c3cc(N)c(C)cc3nc3cc(C)c(Nc4ccccc4)cc32)cc1	119	0.438 µM	223 nM	> 100 µM	53.4	1.08 µM			102	0.482 µM			235	0.538 µM						
O=C(NNc1nc(Cl)nc(N2CCN(C(c3ccccc3)c3ccccc3)CC2)n1)c1ccccc1	3550	18.8 µM	1280 nM	4.53 µM	2150	4.53 µM	1620 nM	3.06 µM	2150	6.26 µM	1690	3.34 µM	1830	3.55 µM	1.76	3.33 µM			1690	3.13 µM
COc1ccc2nc(N/N=C(\C)c3ccccn3)cc(C)c2c1	812	7.02 µM	67.9 nM	0.4 µM	215	1.17 µM	363 nM	1.13 µM	384	7.01 µM	230	0.697 µM	174	0.973 µM	0.382	2.12 µM	59.2	0.452 µM	261	1.28 µM
COc1cc2c(cc1OC)C(=O)/C(=C/c1cccc(OCC(=O)c3ccccc3)c1)C2	21700	> 100 µM	2170 nM	7.31 µM	11300	> 100 µM	5440 nM	> 100 µM	6440	61.8 µM	25100	> 100 µM	10200	> 100 µM	25.7	> 100 µM			8170	> 100 µM
O=C1NCc2ccc3c(-c4cccc(Cl)c4)c[nH]c3c21	58	0.671 µM	192 nM	> 50 µM	279	> 50 µM	217 nM	9.07 µM	146		191	> 50 µM	317	> 50 µM	0.29	> 50 µM	84.9	> 50 µM	247	> 50 µM
